From patent US20250296955A1, “PIN1 TARGETING COMPOUNDS AND DEGRADERS AND METHODS THEREOF” (The Regents of the University of California, priority 2024, published 2025)

Tests used:
[1] = molecular target: T1, Pin1 (Homo sapiens, UniProt Q13526); assay: DELFIA displacement assay (displacement of biotinylated D-peptide from 6His-Pin1); format: binding; parameters: human Pin1 (residues 1-163); made in house; host or cells: E. coli BL21 (DE3) gold pLysS
Excerpt: (§1) Important to the success of structure activity relations studies, robust biochemical, biophysical, and cell-based assays were implemented that enabled rapid and iterative evaluations of test Pin1 targeting agents. First, the DELFIA (Dissociation-enhanced lanthanide fluorescent immunoassay) assay platform was used to derive a robust heterogeneous assay to monitor the ability of test agents to displace the binding between Pin1 and the D-Peptide (Table 1), which was obtained in a biotinylated form (FIG. 10). […] Second, for an orthogonal biophysical assay denaturation thermal shift measurements were used. Pin1 was incubated with vehicle control (buffer with 1% DMSO), or test agents at protein: ligand ratio of 1:2 (20 μM protein-40 μM compound) for 10 min at 10° C. in the presence of the fluorescent dye SYPRO Orange. The samples were gradually exposed to increasing temperature (linear gradient from 10° C. to 95° C.), causing the protein to unfold. This unfolding allowed the fluorescent dye to bind to the protein's exposed hydrophobic residues, resulting in an increase in fluorescence. The thermal shift assay measures the protein's melting temperature (Tm), which is the temperature at which the protein denatures by 50%. Ligands can affect a protein target to thermal denaturation, which could manifest in a positive or negative shift in the protein denaturation temperature (ΔTm) (Bai N, Roder H, Dickson A, & Karanicolas J (2019) Scientific Reports 9; and Kranz J K & Schalk-Hihi C (2011) Fragment-Based Drug Design: Tools, Practical Approaches, and Examples 493:277-298). Using these two assays, a series of commercially available Pin1 inhibitors were profiled (Table 1). The non-covalent agent D-peptide resulted only moderately active, with an IC50 value of ˜3 μM that closely resembled the dissociation constant for this agent determined via isothermal titration calorimetry, and the ˜ 3 μM IC50 value as reported by a fluorescence polarization assay (Pinch B J, et al. (2020) Nat Chem Biol 16(9):979-987). […] (Table 1) was observed.
For the reported covalent agents such as sulfopin (Dubiella C, et al. (2021) Nat Chem Biol 17(9):954-963), BJP-07-017-3 (Pinch B J, et al. (2020) Nat Chem Biol 16(9):979-987), or KPT-6566 (Campaner E, et al. (2017) Nat Commun 8:15772), a 6-h pre-incubation period was included in the DELFIA assay to allow the covalent reaction to take place. For those agents, IC50 values that fell in the low nanomolar range were observed, consistent with what was reported previously for those compounds. […] To make those determinations in a broader panel of cancer cell lines three pancreatic cancer cell lines, BxPC3, MIA-PaCa-2, and PANC-1, the breast cancer cell line MDA-MB-231, the prostate cancer cell line PC3, and the non-small cell lung cancer cell line A549 were chosen. Each cell line represents various states of KRAS activating mutations (for example BxPC3 is wt-KRAS, while MIAPaCa2 carries the KRAS(G12C) mutation, and the PANC-1 the KRAS(G12D) (Miquel M, Zhang S, & Pilarsky C (2021) Front Cell Dev Biol 9:748631), A549 is KRAS(G12S) (Wang H, et al. (2019) EBioMedicine 49:106-117), MDA-MB-231 is KRAS(G13D) (Kim R K, et al. (2015) Exp Mol Med 47(1):e137), PC3 is wt-KRAS (Bouali S, et al. (2009) Oncol Rep 21(3):731-735). Pin1 protein levels in these cell lines were established using a specific Pin1 antibody in western blot analyses (FIG. 1A). The data confirmed that all these selected human cancer cell lines expressed a significant level of Pin1 (FIG. 1A).
Each well of 96-well streptavidin-coated plates (PerkinElmer) was incubated with 100 μL of 200 nM biotinylated D-peptide for 2 h and washed 3 times with a wash solution (PerkinElmer). Subsequently, a mixture containing Pin1, and a serial dilution of the test compounds were pre-incubated for 6 h. Eu-N1-labeled anti-6x-His antibody (PerkinElmer, 1:2000) was then added to this mixture and further incubated in the biotinylated D-peptide-bound plates for another 2 h. […]

[2] = molecular target: T1, Pin1; assay: Denaturation thermal shift assay (SYPRO Orange); format: binding; parameters: human Pin1 (residues 1-163); made in house; host or cells: E. coli BL21 (DE3) gold pLysS; details: for share of first denaturation transition: percentage in brackets after first ΔTm; for share of second denaturation transition: percentage in brackets after second ΔTm
Excerpt: as §1
Thermal shift assays for Pin1 alone and in the presence of the inhibitors were obtained with a BioRad CFX Connect Real-Time PCR Detection System. Each data point was collected in quadruplicate. Each sample was prepared using buffer 50 mM Phosphate pH 7.5, 150 mM NaCl, 1% DMSO. Protein: ligand ratio used was 1:2 (20 μM protein-40 μM compound), and SYPRO Orange was used. Incubation of the Pin1 protein with the compounds was performed at 10° C. for 10 min. Samples were then heated from 10 to 95° C. with heating increments of 0.05° C., over 30 min. Fluorescence intensity was measured within the excitation/emission ranges 470-505/540-700 nm.

[3] = molecular target: T1, Pin1; assay: Pin1 degradation in a panel of human cancer cell lines (western blot); format: cell-based; details: all cell lines, exposed to 5 μM, 24 h (FIG. 4); read-out: Dmax (the maximal level of degradation)
Method: In these studies, it was evident that both agents were very effective in degrading Pin1 in all tested human cancer cell lines with DC50 values (the concentration at which 50% degradation was observed)˜500 nM and Dmax (the maximal level of degradation) close to 100% with all cell lines when exposed to 5 μM of either agent (FIG. 4).
(§2) BxPC3, MIA PaCa-2, PANC-1, MDA-MB-231, and PC3 were obtained from the American Type Culture Collection (ATCC) and A549 NucLight Red cells were purchased from Essen Bioscience. BxPC3 and PC3 cells were cultured in RPMI (Corning) while PANC-1 cells were cultured in DMEM (Corning). MIA PaCa-2 cells were also cultured in DMEM, but with the addition of 2.5% horse serum. A549 NucLight cells were cultured in a Ham's F-12 nutriend mixture with GlutaMAX-1 (Gibco). All of the culture media were supplemented with 10% FBS. […]
(§3) At the end of the treatments, cells were lysed with a lysis buffer containing 20 mM Tris, pH 7.4, 120 mM NaCl, 1% Triton X-100, 0.5% sodium deoxycholate, 0.1% SDS, 1% IGEPAL, 5 mM EDTA, protease inhibitor cocktail and PhosSTOP (Sigma-Aldrich). […] Protein concentrations were determined using the Pierce BCA Protein Assay Kit (ThermoFisher Scientific) according to the manufacturer's instruction. […]

[4] = molecular target: T1, Pin1; details: Pu W, et al. (2018); read-out: dissociation constant by isothermal titration calorimetric measurements; cited from earlier work
[5] = molecular target: T1, Pin1; assay: Pin1 degradation in BxPC3 cells (western blot); format: cell-based; details: Bx-PC3 cell line, 25 μM, 24 h (FIG. 1B)
Excerpt: Next, each cell line was exposed to a relatively high concentration of each of the Pin1 inhibitors from Table 1 and measured their ability to cause Pin1 degradation in the Bx-PC3 cell line under the experimental conditions reported in FIG. 1B. […] It was hypothesized that this observed degradation in the series correlated with the increased sensitivity of Pin1 to thermal degradation induced by BJP-07-017-3 in vitro (Table 1).
as §2, §3

[6] = Table 5, only one transition given
[7] = Table 4, two transitions observed, likely incomplete complex formation

T1 sequence (Q13526 whole entry, the tested form may be a part): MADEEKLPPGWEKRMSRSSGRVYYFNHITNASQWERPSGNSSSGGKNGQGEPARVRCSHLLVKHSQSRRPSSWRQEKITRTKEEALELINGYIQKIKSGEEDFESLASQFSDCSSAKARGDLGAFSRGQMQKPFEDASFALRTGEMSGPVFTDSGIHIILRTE

For O=C(CCl)N[C@@H](Cc1c[nH]c2ccccc12)C(=O)N1CCCC[C@H]1C(=O)NCCc1c[nH]c2cc(Cl)cc(Cl)c12 [164A3], the IC50 ([1]; Table 5) was 1180 ± 45 nM and the “ΔTm (° C.)” value [2, 6] was −13.68 ± 0.20 °C.

In the case of NC(=O)[C@H](Cc1c[nH]c2ccccc12)NC(=O)[C@@H]1C[C@H]2CCCC[C@@H]2N1C(=O)[C@@H]1Cc2c([nH]c3ccccc23)CN1C(=O)CCl [164A4], the IC50 ([1]; Table 4, ± SD from duplicates) is reported as 35 ± 5 nM and the “ΔTm (° C.)” value ([2]; Table 4, single transition, ± SE of four replicates) is reported as −20.46 ± 0.04 °C.

In the case of O=C(NCCc1c[nH]c2cc(Cl)cc(Cl)c12)[C@@H]1CCCCN1C(=O)[C@@H]1Cc2c([nH]c3ccccc23)CN1C(=O)CCl [164A5], the IC50 ([1]; Table 4, ± SD from duplicates) is reported as 433 ± 65 nM, the “share of first denaturation transition” value ([2]; Table 4) is reported as 70% and the “share of second denaturation transition” value ([2]; Table 4) is reported as 30%. For the same molecule, the “ΔTm (° C.), first of two denaturation transitions” value [2, 7] was “+0.66 ± 0.28 °C” and the “ΔTm (° C.)” value [2, 6] was “+0.66 ± 0.28 °C”.

Molecule NC(=O)[C@H](Cc1c[nH]c2ccc(F)cc12)NC(=O)[C@@H]1CCCCN1C(=O)[C@@H]1Cc2c([nH]c3ccccc23)CN1C(=O)CCl [164A10] has a Dmax [3] of ~100% and a ΔTm ([2]; running text and figure legends) of −8.95 °C.

In the case of CC1(C)[C@H]2C[C@@H](C(=O)N[C@@H](Cc3c[nH]c4ccccc34)C(N)=O)N(C(=O)[C@@H]3Cc4c([nH]c5ccccc45)CN3C(=O)CCl)[C@H]21 [164A12], the IC50 ([1]; Table 4, ± SD from duplicates) is reported as 44 ± 1 nM, the “share of first denaturation transition” value ([2]; Table 4) is reported as 30% and the “share of second denaturation transition” value ([2]; Table 4) is reported as 70%. For the same molecule, the “ΔTm (° C.), first of two denaturation transitions” value [2, 7] was “+1.03 ± 0.13 °C” and the “ΔTm (° C.), second printed of two denaturation transitions” value [2, 7] was −19.18 ± 0.07 °C.

For Nc1nc(OCc2ccc(CNC(=O)C(F)(F)F)cc2)c2nc[nH]c2n1 [API-1], the Kd [4] is given as 2900 nM.

With CC(C)(C)CN(C(=O)CCl)C1CCS(=O)(=O)C1 (stereo not drawn) [Sulfopin] the “Pin1 degradation in cell” value [5] was “significant Pin1 degradation”.
